The target in test [1] is T1, CA IX (Homo sapiens, UniProt Q16790). As to the kind of experiment: biochemical. The settings on record: read-out: pKi (exp.) (converted).
In test [2] the target is T1, CA IX. The note with it: read-out: Ki, cited from earlier work.
Where [3] appears, read: library compounds with IDs A… and B…, from observed Ki (nM).
Setting [4] is: library compounds with IDs A… and B…, observed Ki, ref ChEMBL, BindingDB.
Setting [5] is: experimental value used for the QSPR model, library compounds (IDs A…, B…), equals log10 of Ki in nM.
The mark [6] stands for this setting: observed Ki of library compounds (IDs A…, B…), ref ChEMBL and BindingDB.
The mark [7] stands for this setting: experimental value from the library Ki (IDs A…, B…), values equal log10 of Ki in nM.

Where two headings read alike, the source gives them in different places.

With `Nc1nc(=O)[nH]c2c1c(-c1ccc(Br)cc1)cn2-c1ccc(S(N)(=O)=O)cc1` [B0312], the Ki on CA IX [1] and at CA IX [2] was 24 nM in each case.

In the case of `C[C@H](NC(=O)Nc1ccc(NS(N)(=O)=O)cc1)c1cccc2ccccc12` [B0045], the Ki at CA IX [1] (setting [3]) and on CA IX [2] (setting [4]) was 3.4 nM in each case.

For the molecule `CC(=O)/N=C1\SC(S(N)(=O)=O)=N[C@@H]1C` [B0187], the Ki at CA IX [1] was 8.99 nM; on CA IX [2] it was 9 nM.

For `COC(=O)[C@H]1O[C@H](SNCc2ccc(S(N)(=O)=O)cc2)[C@@H](OC(C)=O)[C@H](OC(C)=O)[C@H]1OC(C)=O` [B0598], the Ki on CA IX [1] (setting [5]) and at CA IX [2] (setting [6]) was 102 nM throughout.

As to `CCO[C@H]1Oc2ccccc2C(=O)[C@H]1/C=N\c1ccc(S(=O)(=O)Nc2cc(C)on2)cc1` [B0311], the Ki on CA IX [1] (setting [7]) and on CA IX [2] (setting [6]) was 24 nM in each case.

For the molecule `C[C@H]1O[C@@H](NS(N)(=O)=O)[C@@H](O)[C@H](O)[C@H]1O` [B0772], the Ki at CA IX [1] is 899 nM; on CA IX [2], 900 nM.

`Cc1ncc(-c2ccc(S(N)(=O)=O)s2)o1` [B0222]: the Ki on CA IX [1] (setting [7]) and at CA IX [2] (setting [6]) was 11 nM throughout.

As for `CC(=O)OC[C@@H]1O[C@@H](OCc2cn(-c3ccc(S(N)(=O)=O)cc3)nn2)[C@H](OC(C)=O)[C@@H](OC(C)=O)[C@H]1OC(C)=O` [B0606], the Ki on CA IX [1] and at CA IX [2] was 107 nM throughout.

Regarding `NS(=O)(=O)c1ccc(NC(=S)Nc2ccc(C3c4ccc(O)cc4Oc4cc(O)ccc43)c(C(=O)O)c2)c(F)c1` [B0365], the Ki on CA IX [1] (setting [5]) and at CA IX [2] (setting [6]) was 30 nM throughout.

For `COc1ccc2c(c1)CCN(S(N)(=O)=O)[C@@H]2c1ccc(N)cc1` [B0230], the Ki at CA IX [1] (setting [3]) and on CA IX [2] (setting [4]) was 12 nM throughout.

For the molecule `N#C[C@H]1C(COc2ccc(S(N)(=O)=O)cc2)=NON1O` [A0707], the Ki on CA IX [1] (setting [3]) and at CA IX [2] (setting [4]) was 11.3 nM throughout.

Consider `C[C@H](Nc1nc(NCc2ccc(S(N)(=O)=O)cc2)nc(N[C@H](C)C(=O)O)n1)C(=O)O` [A0552], for which the Ki at CA IX [1] is 8.49 nM; at CA IX [2] it was 8.5 nM.

As to `NS(=O)(=O)c1ccc(-n2cc(/C=N/Nc3nc(-c4cc5cc(Br)ccc5oc4=O)cs3)c(-c3ccccc3)n2)cc1` [B0298], the Ki on CA IX [1] and at CA IX [2] was 22 nM throughout.

As for `NS(=O)(=O)c1ccc(NC(=S)Nc2ccc(C3c4ccc(O)cc4Oc4cc(O)ccc43)c(C(=O)O)c2)c(Cl)c1` [B0381], the Ki at CA IX [1] (setting [3]) and at CA IX [2] (setting [4]) was 32 nM throughout.

As for `NS(=O)(=O)c1ccc(-n2cc(/C=N/Nc3nc(-c4cc5ccccc5oc4=O)cs3)c(-c3ccccc3)n2)cc1` [B0285], the Ki on CA IX [1] (setting [5]) and on CA IX [2] (setting [6]) was 20 nM in each case.

As for `CC(=O)OC[C@H]1O[C@H](CC(=O)/C=C\c2ccc(O)cc2)[C@@H](OC(C)=O)[C@H](OC(C)=O)[C@@H]1OC(C)=O` [B0789], the Ki at CA IX [1] (setting [3]) and at CA IX [2] (setting [4]) was 2900 nM in each case.

For the molecule `Cc1cccc(/C=N/CCc2ccc(S(N)(=O)=O)cc2)c1O` [B0709], the Ki at CA IX [1] and at CA IX [2] was 295 nM each time.

With `CCCN(CCC)S(=O)(=O)c1ccc(C(=O)N[C@H](Cc2ccccc2)C(N)=O)cc1` [B0320], the Ki at CA IX [1] and at CA IX [2] was 25 nM in each case.

With `CN(C)C1=CCN(c2ccncc2S(N)(=O)=O)C=C1` [B0189], the Ki at CA IX [1] (setting [5]) was 8.99 nM; on CA IX [2] (setting [6]), 9 nM.

Regarding `CC1=CC(C)C=C(C)N1Cc1ccc(S(N)(=O)=O)cc1` [B0412], the Ki on CA IX [1] (setting [7]) and on CA IX [2] (setting [6]) was 38 nM each time.

Consider `NS(=O)(=O)c1ccc(N2C(=O)/C(=C\c3coc4ccccc4c3=O)N=C2c2ccccc2)cc1` [B0301], for which the Ki at CA IX [1] (setting [3]) and at CA IX [2] (setting [4]) was 23 nM each time.

Regarding `CC(=O)OC[C@H]1O[C@H](SCc2nnn(-c3ccc(S(N)(=O)=O)cc3)c2C#CCO)[C@@H](OC(C)=O)[C@H](OC(C)=O)[C@@H]1OC(C)=O` [B0570], the Ki at CA IX [1] (setting [7]) and on CA IX [2] (setting [6]) was 91 nM throughout.

As for `CC(=O)[C@H]1NN(c2ccccc2)[C@H]([C@H](C#N)C(=O)Nc2ccc(S(N)(=O)=O)cc2)S1` [A0013], the Ki at CA IX [1] (setting [7]) and on CA IX [2] (setting [6]) was 0.33 nM in each case.

The record behind these values is publication PMC6151961 (Journal of Enzyme Inhibition and Medicinal Chemistry, 2018).
